Data as given in article PMC6199309, “A therapeutic approach to pantothenate kinase associated neurodegeneration” (Nature Communications, 2018).

What was measured:
Assay in all cases: KINOMEscan
Format in all cases: binding
Details in all cases: read-out: %Ctrl @ 10000nM
CSF1R-autoinhibited = target: T1, CSF1R-autoinhibited (Homo sapiens, UniProt P07333)
T1 construct: purchased DiscoverX KINOMEscan

EPHA5 = target: T2, EPHA5 (Homo sapiens, UniProt P54756)
T2 construct: purchased DiscoverX KINOMEscan

FGFR4 = target: T3, FGFR4 (Homo sapiens, UniProt P22455)
T3 construct: purchased DiscoverX KINOMEscan

EPHA8 = target: T4, EPHA8 (Homo sapiens, UniProt P29322)
T4 construct: purchased DiscoverX KINOMEscan

KIT = target: T5, KIT (Homo sapiens, UniProt P10721)
T5 construct: purchased DiscoverX KINOMEscan

PLK1 = target: T6, PLK1 (Homo sapiens, UniProt P53350)
T6 construct: purchased DiscoverX KINOMEscan

[1] = target: T7, JAK1(JH1domain-catalytic) (Homo sapiens, UniProt P23458)
T7 construct: JAK1(JH1domain-catalytic); purchased DiscoverX KINOMEscan

PIKFYVE = target: T8, PIKFYVE (Homo sapiens, UniProt Q9Y2I7)
T8 construct: purchased DiscoverX KINOMEscan

TSSK3 = target: T9, TSSK3 (Homo sapiens, UniProt Q96PN8)
T9 construct: DNA label for qPCR (T7 phage fusion or DNA tag); purchased DiscoverX scanMAX; host or cells: E. coli BL21-derived (T7 phage) or HEK-293

CSF1R = target: T10, CSF1R (Homo sapiens, UniProt P07333)
T10 construct: purchased DiscoverX KINOMEscan

CSNK1G3 = target: T11, CSNK1G3 (Homo sapiens, UniProt Q9Y6M4)
T11 construct: purchased DiscoverX KINOMEscan

KIT(D816V) = target: T12, KIT(D816V) (Homo sapiens, UniProt P10721, D816V)
T12 construct: purchased DiscoverX KINOMEscan

PAK4 = target: T13, PAK4 (Homo sapiens, UniProt O96013)
T13 construct: purchased DiscoverX KINOMEscan

YANK2 = target: T14, YANK2 (Homo sapiens, UniProt Q9NY57)
T14 construct: DNA label for qPCR (T7 phage fusion or DNA tag); purchased DiscoverX scanMAX; host or cells: E. coli BL21-derived (T7 phage) or HEK-293

ROS1 = target: T15, ROS1 (Homo sapiens, UniProt P08922)
T15 construct: purchased DiscoverX KINOMEscan

GRK1 = target: T16, GRK1 (Homo sapiens, UniProt Q15835)
T16 construct: purchased DiscoverX KINOMEscan

NDR1 = target: T17, NDR1 (Homo sapiens, UniProt Q15208)
T17 construct: purchased DiscoverX KINOMEscan

PHKG2 = target: T18, PHKG2 (Homo sapiens, UniProt P15735)
T18 construct: purchased DiscoverX KINOMEscan

EIF2AK1 = target: T19, EIF2AK1 (Homo sapiens, UniProt Q9BQI3)
T19 construct: purchased DiscoverX KINOMEscan

STK39 = target: T20, STK39 (Homo sapiens, UniProt Q9UEW8)
T20 construct: purchased DiscoverX KINOMEscan

MAP3K1 = target: T21, MAP3K1 (Homo sapiens, UniProt Q13233)
T21 construct: purchased DiscoverX KINOMEscan

MARK1 = target: T22, MARK1 (Homo sapiens, UniProt Q9P0L2)
T22 construct: purchased DiscoverX KINOMEscan

MLK2 = target: T23, MLK2 (Homo sapiens, UniProt Q02779)
T23 construct: purchased DiscoverX KINOMEscan

CSNK1A1 = target: T24, CSNK1A1 (Homo sapiens, UniProt P48729)
T24 construct: purchased DiscoverX KINOMEscan

ABL2 = target: T25, ABL2 (Homo sapiens, UniProt P42684)
T25 construct: purchased DiscoverX KINOMEscan

HCK = target: T26, HCK (Homo sapiens, UniProt P08631)
T26 construct: purchased DiscoverX KINOMEscan

PIK3CA(Q546K) = target: T27, PIK3CA(Q546K) (Homo sapiens, UniProt P42336, Q546K)
T27 construct: purchased DiscoverX KINOMEscan

PAK1 = target: T28, PAK1 (Homo sapiens, UniProt Q13153)
T28 construct: purchased DiscoverX KINOMEscan

PCTK2 = target: T29, PCTK2 (Homo sapiens, UniProt Q00537)
T29 construct: purchased DiscoverX KINOMEscan

CDK7 = target: T30, CDK7 (Homo sapiens, UniProt P50613)
T30 construct: purchased DiscoverX KINOMEscan

[2] = target: T31, RSK1(Kin.Dom.1-N-terminal) (Homo sapiens, UniProt Q15418)
T31 construct: RSK1(Kin.Dom.1-N-terminal); purchased DiscoverX KINOMEscan

LATS2 = target: T32, LATS2 (Homo sapiens, UniProt Q9NRM7)
T32 construct: purchased DiscoverX KINOMEscan

DDR2 = target: T33, DDR2 (Homo sapiens, UniProt Q16832)
T33 construct: purchased DiscoverX KINOMEscan

ACVR1B = target: T34, ACVR1B (Homo sapiens, UniProt P36896)
T34 construct: purchased DiscoverX KINOMEscan

CLK3 = target: T35, CLK3 (Homo sapiens, UniProt P49761)
T35 construct: purchased DiscoverX KINOMEscan

WEE2 = target: T36, WEE2 (Homo sapiens, UniProt P0C1S8)
T36 construct: DNA label for qPCR (T7 phage fusion or DNA tag); purchased DiscoverX scanMAX; host or cells: E. coli BL21-derived (T7 phage) or HEK-293

LTK = target: T37, LTK (Homo sapiens, UniProt P29376)
T37 construct: purchased DiscoverX KINOMEscan

TYRO3 = target: T38, TYRO3 (Homo sapiens, UniProt Q06418)
T38 construct: DNA label for qPCR (T7 phage fusion or DNA tag); purchased DiscoverX scanMAX; host or cells: E. coli BL21-derived (T7 phage) or HEK-293

PFCDPK1(P.falciparum) = target: T39, PFCDPK1(P.falciparum) (Plasmodium falciparum, UniProt P62344)
T39 construct: purchased DiscoverX KINOMEscan

FLT3(K663Q) = target: T40, FLT3(K663Q) (Homo sapiens, UniProt P36888, K663Q)
T40 construct: purchased DiscoverX KINOMEscan

NLK = target: T41, NLK (Homo sapiens, UniProt Q9UBE8)
T41 construct: purchased DiscoverX KINOMEscan

HIPK3 = target: T42, HIPK3 (Homo sapiens, UniProt Q9H422)
T42 construct: purchased DiscoverX KINOMEscan

T30 sequence (P50613 whole entry): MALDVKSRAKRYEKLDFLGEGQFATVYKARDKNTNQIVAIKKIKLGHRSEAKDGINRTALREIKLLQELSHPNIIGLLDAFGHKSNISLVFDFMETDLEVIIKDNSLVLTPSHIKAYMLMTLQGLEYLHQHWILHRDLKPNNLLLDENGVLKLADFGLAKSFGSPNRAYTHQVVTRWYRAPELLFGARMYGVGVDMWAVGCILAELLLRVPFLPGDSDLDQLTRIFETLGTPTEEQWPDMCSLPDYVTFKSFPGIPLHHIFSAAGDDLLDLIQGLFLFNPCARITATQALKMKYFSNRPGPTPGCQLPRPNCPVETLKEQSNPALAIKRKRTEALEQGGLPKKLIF
T37 sequence (P29376 17-864): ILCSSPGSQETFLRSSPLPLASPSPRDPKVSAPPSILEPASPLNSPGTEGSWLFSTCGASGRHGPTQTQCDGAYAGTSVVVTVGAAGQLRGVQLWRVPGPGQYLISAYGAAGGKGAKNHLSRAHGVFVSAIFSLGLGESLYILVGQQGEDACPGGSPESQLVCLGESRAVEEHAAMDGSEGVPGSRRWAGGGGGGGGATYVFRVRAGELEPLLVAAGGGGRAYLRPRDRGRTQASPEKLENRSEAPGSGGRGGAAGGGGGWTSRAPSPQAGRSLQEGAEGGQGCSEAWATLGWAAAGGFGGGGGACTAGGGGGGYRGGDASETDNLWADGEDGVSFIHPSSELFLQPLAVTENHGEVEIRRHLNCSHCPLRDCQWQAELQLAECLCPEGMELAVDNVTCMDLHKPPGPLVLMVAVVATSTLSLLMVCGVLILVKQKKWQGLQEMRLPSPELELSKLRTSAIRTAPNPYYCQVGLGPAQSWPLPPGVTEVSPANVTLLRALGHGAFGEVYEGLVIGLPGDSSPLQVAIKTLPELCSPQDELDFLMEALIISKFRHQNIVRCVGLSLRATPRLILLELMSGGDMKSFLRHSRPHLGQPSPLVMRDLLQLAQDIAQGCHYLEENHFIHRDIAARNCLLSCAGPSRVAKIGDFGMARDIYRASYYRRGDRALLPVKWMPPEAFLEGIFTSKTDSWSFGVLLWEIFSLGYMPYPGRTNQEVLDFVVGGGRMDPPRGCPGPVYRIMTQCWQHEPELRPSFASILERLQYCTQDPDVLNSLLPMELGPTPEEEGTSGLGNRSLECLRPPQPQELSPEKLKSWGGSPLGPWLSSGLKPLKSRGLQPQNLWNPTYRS
T6 sequence (P53350 whole entry): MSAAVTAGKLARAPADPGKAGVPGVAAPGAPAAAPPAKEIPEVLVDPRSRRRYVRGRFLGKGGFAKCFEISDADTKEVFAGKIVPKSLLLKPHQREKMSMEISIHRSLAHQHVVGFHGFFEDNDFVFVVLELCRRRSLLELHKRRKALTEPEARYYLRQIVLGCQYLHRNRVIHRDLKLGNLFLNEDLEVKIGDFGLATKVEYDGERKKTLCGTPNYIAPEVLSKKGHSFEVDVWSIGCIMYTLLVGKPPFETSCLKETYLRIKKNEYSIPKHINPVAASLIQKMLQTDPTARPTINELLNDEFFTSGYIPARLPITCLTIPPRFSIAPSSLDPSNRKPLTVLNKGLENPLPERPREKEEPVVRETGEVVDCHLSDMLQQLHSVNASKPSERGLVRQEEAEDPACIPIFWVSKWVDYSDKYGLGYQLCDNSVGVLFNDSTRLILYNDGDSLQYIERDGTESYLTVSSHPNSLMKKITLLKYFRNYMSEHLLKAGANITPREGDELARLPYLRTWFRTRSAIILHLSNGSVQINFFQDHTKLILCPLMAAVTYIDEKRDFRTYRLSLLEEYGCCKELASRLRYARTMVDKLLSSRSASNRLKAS
T3 sequence (P22455 22-802): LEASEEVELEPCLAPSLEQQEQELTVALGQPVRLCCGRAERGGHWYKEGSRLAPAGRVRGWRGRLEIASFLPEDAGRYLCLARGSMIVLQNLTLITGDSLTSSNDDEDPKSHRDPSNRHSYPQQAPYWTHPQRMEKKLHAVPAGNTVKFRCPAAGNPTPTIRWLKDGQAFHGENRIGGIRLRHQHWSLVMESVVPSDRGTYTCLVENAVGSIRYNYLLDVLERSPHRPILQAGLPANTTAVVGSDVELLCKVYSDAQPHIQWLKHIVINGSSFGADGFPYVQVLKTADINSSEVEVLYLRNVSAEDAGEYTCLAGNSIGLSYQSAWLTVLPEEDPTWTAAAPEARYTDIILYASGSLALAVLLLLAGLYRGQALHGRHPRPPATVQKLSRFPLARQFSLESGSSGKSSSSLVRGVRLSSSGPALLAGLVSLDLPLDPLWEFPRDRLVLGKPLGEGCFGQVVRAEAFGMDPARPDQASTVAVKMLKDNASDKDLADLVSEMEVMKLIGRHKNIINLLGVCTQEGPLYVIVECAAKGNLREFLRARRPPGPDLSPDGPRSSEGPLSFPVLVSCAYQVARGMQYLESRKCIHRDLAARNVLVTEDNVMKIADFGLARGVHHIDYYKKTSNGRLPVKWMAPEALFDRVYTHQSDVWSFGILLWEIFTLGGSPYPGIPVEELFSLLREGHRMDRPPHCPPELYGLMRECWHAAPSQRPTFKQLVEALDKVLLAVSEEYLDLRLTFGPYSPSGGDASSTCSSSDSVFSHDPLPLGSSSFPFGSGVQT
T27 sequence (P42336 whole entry Q546K): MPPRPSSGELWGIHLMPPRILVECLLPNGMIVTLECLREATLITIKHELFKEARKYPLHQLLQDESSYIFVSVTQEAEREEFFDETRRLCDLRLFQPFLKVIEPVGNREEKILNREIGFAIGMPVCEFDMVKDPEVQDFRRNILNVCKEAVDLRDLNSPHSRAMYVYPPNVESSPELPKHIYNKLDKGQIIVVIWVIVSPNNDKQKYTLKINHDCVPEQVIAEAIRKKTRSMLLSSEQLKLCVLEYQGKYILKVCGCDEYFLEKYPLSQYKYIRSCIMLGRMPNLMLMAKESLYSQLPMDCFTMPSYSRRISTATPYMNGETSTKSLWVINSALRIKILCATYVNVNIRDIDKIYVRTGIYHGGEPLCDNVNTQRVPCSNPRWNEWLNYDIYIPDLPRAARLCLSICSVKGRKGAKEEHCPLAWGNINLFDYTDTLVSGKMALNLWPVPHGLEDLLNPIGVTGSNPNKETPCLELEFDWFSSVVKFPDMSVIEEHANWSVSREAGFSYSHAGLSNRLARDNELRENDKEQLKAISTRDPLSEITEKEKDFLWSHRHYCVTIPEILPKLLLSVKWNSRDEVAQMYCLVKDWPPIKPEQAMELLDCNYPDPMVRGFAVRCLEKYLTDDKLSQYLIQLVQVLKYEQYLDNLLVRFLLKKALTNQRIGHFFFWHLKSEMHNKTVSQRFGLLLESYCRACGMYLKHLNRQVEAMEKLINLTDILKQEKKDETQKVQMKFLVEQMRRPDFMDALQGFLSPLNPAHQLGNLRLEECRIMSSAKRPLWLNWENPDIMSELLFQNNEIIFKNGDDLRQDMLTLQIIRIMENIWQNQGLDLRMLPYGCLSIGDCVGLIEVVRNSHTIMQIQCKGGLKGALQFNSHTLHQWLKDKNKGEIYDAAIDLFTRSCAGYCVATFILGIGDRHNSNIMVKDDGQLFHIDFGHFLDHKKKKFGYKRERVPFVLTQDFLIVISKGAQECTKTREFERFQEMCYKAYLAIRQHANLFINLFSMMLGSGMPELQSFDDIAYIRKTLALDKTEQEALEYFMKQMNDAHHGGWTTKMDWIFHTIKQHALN
T36 sequence (P0C1S8 whole entry, the tested form may be a part): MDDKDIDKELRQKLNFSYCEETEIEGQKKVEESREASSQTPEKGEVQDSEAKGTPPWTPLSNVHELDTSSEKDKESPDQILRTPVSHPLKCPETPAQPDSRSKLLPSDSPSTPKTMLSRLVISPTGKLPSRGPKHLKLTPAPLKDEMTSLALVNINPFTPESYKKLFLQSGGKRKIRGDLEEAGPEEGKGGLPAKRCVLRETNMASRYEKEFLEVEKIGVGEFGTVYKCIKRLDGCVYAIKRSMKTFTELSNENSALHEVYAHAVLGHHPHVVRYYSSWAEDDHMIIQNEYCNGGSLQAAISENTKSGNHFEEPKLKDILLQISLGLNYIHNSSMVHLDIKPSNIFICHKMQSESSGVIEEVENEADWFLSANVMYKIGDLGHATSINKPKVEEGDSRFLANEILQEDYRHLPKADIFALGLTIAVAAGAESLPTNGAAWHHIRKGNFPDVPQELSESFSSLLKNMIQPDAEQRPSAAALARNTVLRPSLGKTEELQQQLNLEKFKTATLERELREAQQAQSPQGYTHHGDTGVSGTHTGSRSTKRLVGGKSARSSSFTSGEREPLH
T1 sequence (P07333 539-972 limits assumed): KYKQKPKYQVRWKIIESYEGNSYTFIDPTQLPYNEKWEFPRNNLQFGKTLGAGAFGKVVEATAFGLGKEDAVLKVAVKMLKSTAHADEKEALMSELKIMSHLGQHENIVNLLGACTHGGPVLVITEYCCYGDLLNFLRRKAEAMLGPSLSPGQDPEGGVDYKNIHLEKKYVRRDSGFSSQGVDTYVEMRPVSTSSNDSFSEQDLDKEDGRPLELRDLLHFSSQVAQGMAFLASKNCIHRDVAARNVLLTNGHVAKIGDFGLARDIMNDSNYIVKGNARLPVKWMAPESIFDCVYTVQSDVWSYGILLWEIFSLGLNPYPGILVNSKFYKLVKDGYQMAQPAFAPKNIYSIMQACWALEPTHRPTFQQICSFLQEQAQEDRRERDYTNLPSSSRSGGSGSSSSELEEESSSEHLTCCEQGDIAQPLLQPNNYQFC
T7 sequence (P23458 854-1154 limits assumed): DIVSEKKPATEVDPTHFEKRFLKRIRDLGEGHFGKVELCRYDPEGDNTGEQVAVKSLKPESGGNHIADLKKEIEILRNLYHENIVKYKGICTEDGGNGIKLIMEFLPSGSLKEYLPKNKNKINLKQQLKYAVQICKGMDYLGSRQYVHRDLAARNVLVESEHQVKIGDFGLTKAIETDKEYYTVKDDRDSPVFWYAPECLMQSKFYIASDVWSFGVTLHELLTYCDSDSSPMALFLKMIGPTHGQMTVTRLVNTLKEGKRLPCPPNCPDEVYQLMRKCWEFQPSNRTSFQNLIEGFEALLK

Q: What does the source list for `CC(C)c1ccc(CC(=O)N2CCN(c3ccc(C#N)nn3)CC2)cc1` [PZ-2891, 6-(4-(2-(4-isopropylphenyl)acetyl)piperazin-1-yl)pyridazine-3-carbonitrile]?
A: remaining binding at 10 µM (CSF1R-autoinhibited): 93%; remaining binding at 10 µM (EPHA5): 88%; remaining binding at 10 µM (FGFR4): 73%; remaining binding at 10 µM (EPHA8): 95%; remaining binding at 10 µM (KIT): 75%; remaining binding at 10 µM (PLK1): 85%; remaining binding at 10 µM [1]: 74%; remaining binding at 10 µM (PIKFYVE): 72%; remaining binding at 10 µM (TSSK3): 69%; remaining binding at 10 µM (CSF1R): 91%; remaining binding at 10 µM (CSNK1G3): 80%; remaining binding at 10 µM (KIT(D816V)): 92%; remaining binding at 10 µM (PAK4): 92%; remaining binding at 10 µM (YANK2): 100%; remaining binding at 10 µM (ROS1): 81%; remaining binding at 10 µM (GRK1): 72%; remaining binding at 10 µM (NDR1): 75%; remaining binding at 10 µM (PHKG2): 100%; remaining binding at 10 µM (EIF2AK1): 95%; remaining binding at 10 µM (STK39): 70%; remaining binding at 10 µM (MAP3K1): 89%; remaining binding at 10 µM (MARK1): 77%; remaining binding at 10 µM (MLK2): 72%; remaining binding at 10 µM (CSNK1A1): 66%; remaining binding at 10 µM (ABL2): 96%; remaining binding at 10 µM (HCK): 79%; remaining binding at 10 µM (PIK3CA(Q546K)): 70%; remaining binding at 10 µM (PAK1): 76%; remaining binding at 10 µM (PCTK2): 95%; remaining binding at 10 µM (CDK7): 79%; remaining binding at 10 µM [2]: 100%; remaining binding at 10 µM (LATS2): 82%; remaining binding at 10 µM (DDR2): 85%; remaining binding at 10 µM (ACVR1B): 97%; remaining binding at 10 µM (CLK3): 93%; remaining binding at 10 µM (WEE2): 99%; remaining binding at 10 µM (LTK): 75%; remaining binding at 10 µM (TYRO3): 100%; remaining binding at 10 µM (PFCDPK1(P.falciparum)): 97%; remaining binding at 10 µM (FLT3(K663Q)): 88%; remaining binding at 10 µM (NLK): 94%; remaining binding at 10 µM (HIPK3): 81%
